# Test results: PubChem BioAssay (NCI)
# Where “and” joins values, the source holds several entries; their conditions need not be identical. Equal values may be shown once.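 Cultured in 96-well plates, cells were exposed to test compound for 48 hours across five concentrations. GI50 = concentration required for 50% inhibition of growth. Definition used: TGI = concentration required for complete inhibition of growth.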
# Assays:
# Assay in all cases: inhibition of tumour cell growth, NCI panel, 48 h
# HCC-2998 colon = system: HCC-2998 colon
# K-562 leukemia = system: K-562 leukemia
# NCI-H226 lung = system: NCI-H226 lung
# NCI-H23 lung = system: NCI-H23 lung
# OVCAR-5 ovarian = system: OVCAR-5 ovarian
# OVCAR-8 ovarian = system: OVCAR-8 ovarian
# RXF 393 renal = system: RXF 393 renal
# SK-OV-3 ovarian = system: SK-OV-3 ovarian
# SNB-19 CNS = system: SNB-19 CNS
# UACC-62 melanoma = system: UACC-62 melanoma
Structure (SMILES),GI50 (HCC-2998 colon),TGI (HCC-2998 colon),GI50 (K-562 leukemia),TGI (K-562 leukemia),GI50 (NCI-H226 lung),TGI (NCI-H226 lung),GI50 (NCI-H23 lung),TGI (NCI-H23 lung),GI50 (OVCAR-5 ovarian),TGI (OVCAR-5 ovarian),GI50 (OVCAR-8 ovarian),TGI (OVCAR-8 ovarian),GI50 (RXF 393 renal),TGI (RXF 393 renal),GI50 (SK-OV-3 ovarian),TGI (SK-OV-3 ovarian),GI50 (SNB-19 CNS),TGI (SNB-19 CNS),GI50 (UACC-62 melanoma),TGI (UACC-62 melanoma)
N#Cc1c(NC(=O)c2ccc(F)cc2)sc2c1CCCC2,> 25 µM,> 25 µM,> 25 µM,> 25 µM,> 25 µM,> 25 µM,> 25 µM,> 25 µM,> 25 µM,> 25 µM,> 25 µM,> 25 µM,> 25 µM,> 25 µM,> 25 µM,> 25 µM,> 25 µM,> 25 µM,> 25 µM,> 25 µM
O=C(c1ccc(C(F)(F)F)c(Cl)c1)N(Cc1ccc(Cl)cc1)c1ccc(-c2cc(C(F)(F)F)[nH]n2)c(O)c1,1.43 µM,4.63 µM,1.05 µM,5.16 µM,1.08 µM,2.94 µM,0.91 µM,2.45 µM,1.07 µM,4.26 µM,1.2 µM,3.91 µM,0.923 µM,2.04 µM,1.37 µM,4.89 µM,1.61 µM,6.35 µM,0.8 µM,1.97 µM
Cn1c(=O)nc2n(-c3ccc(Cl)cc3)c3cc(Cl)ccc3nc-2c1=O,,14.1 µM,,5.41 µM,,42.5 µM,,6.06 µM,,29.1 µM,,6.2 µM,,9.25 µM,,34.6 µM,,27.9 µM,,3.57 µM
CCC1C(C(=O)Nc2ccccc2C)=C(C)NC(C)=C1c1ccccc1C (stereo not drawn),,> 100 µM,,> 100 µM,,> 100 µM,,> 100 µM,,> 100 µM,,> 100 µM,,> 100 µM,,> 100 µM,,> 100 µM,,> 100 µM
COc1ccc(NC2=C(I)C(=O)c3ncccc3C2=O)cc1,1.45 µM,3.01 µM,0.533 µM,5.19 µM,1.42 µM,2.83 µM,0.327 µM,1.68 µM,1.69 µM,3.15 µM,1.84 µM,5.79 µM,1.41 µM,2.82 µM,1.36 µM,2.72 µM,1.18 µM,3.29 µM,1.66 µM,3.4 µM
COc1cc(N2C(=O)[C@H](c3ccccc3)C2c2ccc(SC)cc2)cc(OC)c1OC (stereo partly drawn),0.0438 µM,> 100 µM,0.037 µM,> 100 µM,0.0301 µM,> 100 µM,0.0502 µM,> 100 µM,0.0613 µM,> 100 µM,0.0388 µM,> 100 µM,0.038 µM,> 100 µM,0.0676 µM,> 100 µM,0.0422 µM,> 100 µM,0.0484 µM,8.86 µM
Cn1c2c(c3ccccc31)CCN(CCCCN1CCN(c3ccccc3)CC1)C2=O,,31.7 µM,,> 56 µM,,> 87 µM,,> 76.8 µM,,80.9 µM,,> 56.2 µM,,76.4 µM,,> 100 µM,,> 100 µM,,> 68.7 µM
C=CC(=O)N1C[C@@H]2CCOc3c(Cl)c(-c4c(O)cccc4F)c(F)c4ncnc(c34)N2C[C@H]1C,15.2 µM,28.8 µM,8.72 µM,> 100 µM,13.1 µM,45.2 µM,0.0328 µM,13.1 µM,16.3 µM,31.1 µM,16.5 µM,56.6 µM,2.15 µM,15.1 µM,17.3 µM,42.7 µM,14.6 µM,28 µM,4.17 µM,18.8 µM
Clc1cc(Cl)c(OCCCCCCN2CCNCC2)c(Cl)c1,2 µM,4.1 µM,1.92 µM,4.24 µM,12.3 µM,30.8 µM,7.31 µM,21.8 µM,2.82 µM,8.42 µM,3.36 µM,12.4 µM,1.7 µM,5.07 µM,12.9 µM,28.6 µM,3.87 µM,16.3 µM,2.09 µM,4.27 µM
COCCOC1=CC(=O)c2c(O)ccc(O)c2C1=O,1.7 µM,4.03 µM and 3.12 µM,1.4 µM,5.77 µM and 3.57 µM,,4.01 µM and 4.16 µM,1.44 µM,2.43 µM and 3.34 µM,1.92 µM,2.96 µM and 3.46 µM,,3.49 µM,1.5 µM,3.63 µM and 2.94 µM,17.9 µM,31.7 µM,,3.82 µM,1.62 µM,3.74 µM and 3.58 µM
O=c1cnnc(N/N=C/c2ccccc2O)[nH]1,3.02 µM,> 100 µM,0.163 µM,> 100 µM,1.63 µM,51.7 µM,1.21 µM,> 100 µM,1.22 µM,> 100 µM,1.81 µM,> 100 µM,5.16 µM,37.7 µM,3.6 µM,> 100 µM,6.41 µM,> 100 µM,1.31 µM,7.88 µM
CCN(CC)CC(C)C(=O)/C=C/c1ccc(C)cc1 (stereo not drawn),,9.28 µM,,> 100 µM,,31.3 µM,,19.9 µM,,28 µM,,11.3 µM,,4.31 µM,,30.7 µM,,30.5 µM,,12.2 µM
NS(=O)(=O)c1ccc(NC(=O)Cc2nc3ccccc3s2)cc1,,35.8 µM,,59.4 µM,,33 µM,,29.5 µM,,35.2 µM,,34.9 µM,,32.6 µM,,40.5 µM,,49.5 µM,,29.4 µM
CC(C)(C)c1cc(CCCCCCCC2(CCCCCCCc3cc(C(C)(C)C)cc(C(C)(C)C)c3)OC(COCCOCCCCCC#N)C(COCCOCCCCCC#N)O2)cc(C(C)(C)C)c1 (stereo not drawn),,> 100 µM,,> 100 µM,,> 100 µM,,> 100 µM,,> 100 µM,,> 100 µM,,> 100 µM,,> 100 µM,,> 100 µM,,> 100 µM
O=C(C=P(c1ccccc1)(c1ccccc1)c1ccccc1)CCl,1.84 µM,3.7 µM,0.844 µM,9.12 µM,1.31 µM,2.97 µM,0.811 µM,4.83 µM,1.46 µM,3.73 µM,0.918 µM,3.8 µM,1.01 µM,2.41 µM,4.67 µM,16.1 µM,3.55 µM,15.1 µM,1.14 µM,2.88 µM
C=CC(=O)NC(N)=NC#N,,329 µM,136 µM,445 µM,,353 µM,,344 µM,,317 µM,,484 µM,149 µM,98.1 µM and 286 µM,,315 µM,,523 µM,,294 µM
C#Cc1cccc(Nc2ncnc3ccc(OCCCCNCCS(C)(=O)=O)cc23)c1,7.83 µM,> 25 µM,6.25 µM,14.6 µM,> 19.6 µM,> 25 µM,16.7 µM,> 25 µM,4.93 µM,> 25 µM,7.56 µM,> 25 µM,5.32 µM,> 22.6 µM,1.28 µM,> 25 µM,15.2 µM,> 25 µM,4.82 µM,9.1 µM
COc1ccc2c3c1OC1C(OC)(OC)C=C[C@@]4(Br)[C@@H](C2)N(CC2CC2)CC[C@]314 (stereo partly drawn),,> 100 µM,,> 100 µM,,> 100 µM,,> 100 µM,,> 100 µM,,> 100 µM,,> 100 µM,,> 100 µM,,> 100 µM,,> 100 µM
COc1cc(/C=C2\CCC/C(=C\c3ccc(O)c(OC)c3)C2=O)ccc1O,1.67 µM,8.09 µM and 3.04 µM,2.71 µM,> 61 µM and 25.7 µM,,16.8 µM,1.84 µM,24.8 µM and 4.63 µM,2.3 µM,26.6 µM and 5.67 µM,2.49 µM,3.39 µM and 11.1 µM,1.43 µM,6.17 µM and 2.94 µM,2.36 µM,15.5 µM and 6.31 µM,2.46 µM,22.1 µM and 10.2 µM,1.6 µM,5.32 µM and 4.06 µM
COc1ccc(CCN(CC(=O)N(CC(N)=O)C2CCC[C@@H]2OCc2ccccc2)C(=O)CN(C(=O)CN(CCc2ccc(Cl)cc2)C(=O)CN(C(=O)CN(C)Cc2ccccc2F)[C@H](C)C2CCCCC2)[C@H](C)C2CCCCC2)cc1OC (stereo partly drawn),1.61 µM,> 50 µM,1.61 µM,> 50 µM,1.86 µM,41.7 µM,3.26 µM,> 50 µM,2.24 µM,> 50 µM,2.82 µM,> 50 µM,1.49 µM,3.84 µM,2.5 µM,> 50 µM,1.64 µM,> 50 µM,1.42 µM,> 50 µM
Oc1ccc2c3c1OC1c4[nH]ncc4C[C@H]4[C@@H](C2)N(CC2CC2)CC[C@]314 (stereo partly drawn),,> 100 µM,,> 100 µM,,> 100 µM,,> 100 µM,,> 100 µM,,> 100 µM,,> 100 µM,,> 100 µM,,> 100 µM,,> 100 µM
N#CC1=C(N)NC(=S)NC12Nc1ccccc1S2 (stereo not drawn),33 µM,> 100 µM,30.3 µM,> 100 µM,31.2 µM,> 100 µM,31.4 µM,> 100 µM,75.7 µM,> 100 µM,39.6 µM,> 100 µM,33.8 µM,> 100 µM,37.1 µM,> 100 µM,28.1 µM,> 100 µM,19.7 µM,55.8 µM
O=C(CCc1ccccc1)NS(=O)(=O)c1ccccc1,,> 100 µM,,> 100 µM,,> 100 µM,,> 100 µM,,> 100 µM,,> 100 µM,,> 100 µM,,> 100 µM,,> 100 µM,,> 100 µM
CSc1nc2nn(Cc3ccccc3)cc2c(=O)[nH]1,,> 100 µM,,> 100 µM,,> 100 µM,,> 100 µM,,> 100 µM,,> 100 µM,,> 100 µM,,> 100 µM,,> 100 µM,,> 100 µM
O=C(OCCCl)C1OC(n2cc(F)c(=O)[nH]c2=O)CC1O (stereo not drawn),,> 100 µM,,> 100 µM,,> 100 µM,,> 100 µM,,> 100 µM,,> 100 µM,,> 100 µM,,> 100 µM,,> 100 µM,,> 100 µM
O=c1c2ccccc2c(/C=N\NC2=NCCN2)c2oc3ccccc3n12,12.9 µM,34.1 µM,22.2 µM,> 100 µM,19.2 µM,48.2 µM,15.7 µM,37.6 µM,19.8 µM,37.1 µM,19.4 µM,45.6 µM,21.4 µM,40.2 µM,19.5 µM,40.8 µM,22.5 µM,51.3 µM,16.3 µM,33.4 µM
CC(C)(C)c1cc(/C=N/NC(=O)c2ccccc2NC(=O)c2cccs2)c(O)c(C(C)(C)C)c1,0.88 µM,30.1 µM,1.1 µM,51.6 µM,3 µM,> 100 µM,1.62 µM,25.5 µM,2.83 µM,62.4 µM,0.895 µM,11.2 µM,3.02 µM,47.4 µM,1.29 µM,> 100 µM,0.916 µM,71.1 µM,0.39 µM,14 µM
O=C(/C=C/c1ccccc1O)c1ccc([N+](=O)[O-])cc1,,30.1 µM,,71.6 µM,,46.1 µM,,25.4 µM,,41.1 µM,,29.1 µM,,24.3 µM,,70.7 µM,,35.8 µM,,31.2 µM
COc1cc(/C=C/c2cc(/C=C/c3ccc(O)c(OC)c3)n(C(=O)Nc3ccccc3Cl)n2)ccc1O,0.725 µM,5.72 µM,0.301 µM,3.11 µM,0.617 µM,2.74 µM,0.33 µM,2.46 µM,1.65 µM,5.5 µM,0.378 µM,1.6 µM,0.309 µM,0.845 µM,0.401 µM,2.35 µM,0.743 µM,4.23 µM,0.425 µM,2.5 µM
c1ccncc1,,> 100 µM,,> 100 µM,,> 100 µM,,> 100 µM,,> 100 µM,,> 100 µM,,> 100 µM,,> 100 µM,,> 100 µM,,> 100 µM
